We go through 13 molecules from patent US20130030017A1, “QUINOLINE DERIVATIVES AS ANTIBACTERIAL AGENTS” (priority 2005, published 2013).

In data set [1] the test system is Streptococcus pneumoniae (ATCC6305). Put plainly: Microtitre plate assay, IC90 determination (SPN 6305). It counts as cell-based. The following applies: 90% inhibitory concentration for bacterial growth, 37° C., resazurin fluorescence; for IC90: Streptococcus pneumoniae, ATCC6305, 24 h; for IC90 SPN 6305: 24 hours. As to the method:
(§1) The bacteria used in this study were grown overnight in flasks containing 100 ml Mueller-Hinton Broth (Becton Dickinson—cat. no. 275730) in sterile de-ionized water, with shaking, at 37° C. Stocks (0.5 ml/tube) were stored at −70° C. until use. Bacteria titrations were performed in microtiter plates and colony forming units (CFUs) were determined. In general, an inoculum level of approximately 100 CFUs was used for susceptibility testing.
(§2) Flat-bottom, sterile 96-well plastic microtiter plates were filled with 180 μl of sterile deionized water, supplemented with 0.25% BSA. Subsequently, stock solutions (7.8× final test concentration) of compounds were added in 45 μl volumes in column 2 Serial five-fold dilutions (45 μl in 180 μl) were made directly in the microtiter plates from column 2 to reach column 11. Untreated control samples with (column 1) and without (column 12) inoculum were included in each microtiter plate. Depending on the bacteria type, approximately 10 to 60 CFU per well of bacteria inoculum (100 TCID50), in a volume of 100 μl in 2.8× Mueller-Hinton broth medium, was added to the rows A to H, except column 12. The same volume of broth medium without inoculum was added to column 12 in row A to H. The cultures were incubated at 37° C. for 24 hours under a normal atmosphere (incubator with open air valve and continuous ventilation). At the end of incubation, one day after inoculation, the bacterial growth was quantitated fluorometrically. Therefore resazurin (0.6 mg/ml) was added in a volume of 20 μl to all wells 3 hours after inoculation, and the plates were re-incubated overnight. A change in colour from blue to pink indicated the growth of bacteria. The fluorescence was read in a computer-controlled fluorometer (Cytofluor Biosearch) at an excitation wavelength of 530 nm and an emission wavelength of 590 nm. The % growth inhibition achieved by the compounds was calculated according to standard methods. The IC90 (expressed in μg/ml) was defined as the 90% inhibitory concentration for bacterial growth.
(The colour change of resazurin is a common sign of viable cells or microbes.)

Data set [2] has as its system Staphylococcus aureus (ATCC29213). The data set can be described thus: Microtitre plate assay, IC90 determination (STA 29213). It is filed as cell-based. The following applies: 90% inhibitory concentration for bacterial growth, 37° C., resazurin fluorescence; for IC90: Staphylococcus aureus, ATCC29213, 24 h; for IC90 STA 29213: 24 hours. The procedure: as §1, §2
Data set [3] has as its system Enterococcus faecalis (ATCC29212). Put plainly: Microtitre plate assay, IC90 determination (EFA 29212). The following applies: 90% inhibitory concentration for bacterial growth, 37° C., resazurin fluorescence; for IC90: Enterococcus faecalis, ATCC29212, 24 h; for IC90 EFA 29212: 24 hours. It counts as cell-based. As to the method: as §1, §2
The subject of data set [4] is Pseudomonas aeruginosa (ATCC27853). The data set can be described thus: Microtitre plate assay, IC90 determination (PAE 27853). It counts as cell-based. The following applies: 90% inhibitory concentration for bacterial growth, 37° C., resazurin fluorescence; for IC90 PAE 27853: 24 hours; for IC90: Pseudomonas aeruginosa, ATCC27853, 24 h. As to the method: as §1, §2
Data set [5] concerns Streptococcus pyogens (ATCC8668). Put plainly: Microtitre plate assay, IC90 determination (SPY 8668). It is filed as cell-based. As to conditions: 90% inhibitory concentration for bacterial growth, 37° C., resazurin fluorescence; for IC90: Streptococcus, ATCC8668, 24 h; for IC90 SPY 8668: 24 hours. As to the method:
as §1, §2

Values after ≈ are worked out from the molar mass of the structure shown.

What is called IC90 is the concentration needed for an effect of 90%. One may read the melting point as the temperature, or range, at which the solid turns liquid. Consider `CNCCC(O)(CCc1ccc(F)cc1)C(c1ccccc1)c1cc2cc(Br)ccc2nc1OC` (centres unmarked) [Compound 39], for which the melting point is 140 °C. The 90% effect level in data set [1] (IC90) was put at 0.3 µg/mL (≈ 0.558 µM). Moreover, the IC90 in data set [2] is 1.7 µg/mL (≈ 3.16 µM).
`COc1nc2ccc(Br)cc2cc1C(c1ccccc1)C(O)(CCN(C)C)Cc1cccc2ccccc12` (centres unmarked) [Compound 41] yielded a melting point of 112 °C. Moreover, the IC90 in data set [1] worked out at 2.3 µg/mL (≈ 4.04 µM). Moreover, the “IC90 STA 29213” value in data set [2] came out at 57.0 µg/mL (≈ 100 µM).
`CCOCCOCCOc1nc2ccc(Br)cc2cc1C(c1ccccc1)C(O)(CCc1ccccc1)CCN(C)C` (centres unmarked) [Compound 43] had a melting point of 94 °C. The molecule also returned a concentration for an effect of 90% (IC90) in data set [3] of 10.1 µg/mL (≈ 15.9 µM). For the same molecule, the “IC90 PAE 27853” value in data set [4] was determined as 10.1 µg/mL (≈ 15.9 µM). In data set [1], this molecule yielded an IC90 of 2.3 µg/mL (≈ 3.62 µM). Besides, in data set [5], the 90% effect level (IC90) was put at 10.1 µg/mL (≈ 15.9 µM). The “IC90 STA 29213” value in data set [2] is 10.1 µg/mL (≈ 15.9 µM).
As for `COc1nc2ccc(Br)cc2cc1C(c1ccc(Cl)cc1)C(O)(CCc1cccc(F)c1)CCN(C)C` (centres unmarked) [Compound 77], in data set [3], the “IC90 EFA 29212” value was 3.7 µg/mL (≈ 6.31 µM). In addition, the IC90 in data set [4] is 1.9 µg/mL (≈ 3.24 µM); in data set [1] it was 0.8 µg/mL (≈ 1.37 µM); in data set [5], 1.9 µg/mL (≈ 3.24 µM). Moreover, in data set [2], the “IC90 STA 29213” value amounted to 1.9 µg/mL (≈ 3.24 µM).
For `COc1nc2ccc(Br)cc2cc1C(c1ccc(Cl)cc1)C(O)(CCc1cccc(F)c1)CCN(C)C` (centres unmarked) [Compound 78], the “IC90 EFA 29212” value in data set [3] was 9.3 µg/mL (≈ 15.9 µM). The “IC90 PAE 27853” value in data set [4] came out at 1.9 µg/mL (≈ 3.24 µM). Besides, the “IC90 SPN 6305” value in data set [1] was 1.5 µg/mL (≈ 2.56 µM). Moreover, the “IC90 SPY 8668” value in data set [5] came out at 1.9 µg/mL (≈ 3.24 µM). For the same molecule, in data set [2], the “IC90 STA 29213” value came out at 7.4 µg/mL (≈ 12.6 µM).
Turning to `COc1nc2ccc(Br)cc2cc1C(c1ccc(Cl)cc1)C(O)(CCc1ccc(F)cc1)CCN(C)C` (centres unmarked) [Compound 79], the IC90 in data set [3] came out at 58.6 µg/mL (≈ 100 µM); in data set [4] it was 46.5 µg/mL (≈ 79.4 µM); in data set [1], 2.3 µg/mL (≈ 3.93 µM); in data set [5] it was 46.5 µg/mL (≈ 79.4 µM); in data set [2], 9.3 µg/mL (≈ 15.9 µM).
Consider `COc1nc2ccc(Br)cc2cc1C(c1cccc(Cl)c1)C(O)(CCc1ccc(F)cc1)CCN(C)C` (centres unmarked) [Compound 80], for which, in data set [3], the “IC90 EFA 29212” value worked out at 8.3 µg/mL (≈ 14.2 µM). In data set [4], the “IC90 PAE 27853” value was 1.9 µg/mL (≈ 3.24 µM). For the same molecule, in data set [1], the “IC90 SPN 6305” value stood at 1.9 µg/mL (≈ 3.24 µM). The “IC90 SPY 8668” value in data set [5] stood at 3.3 µg/mL (≈ 5.63 µM). Besides, in data set [2], the “IC90 STA 29213” value came out at 9.3 µg/mL (≈ 15.9 µM).
With `COc1nc2ccc(Br)cc2cc1C(c1cccc(Cl)c1)C(O)(CCc1ccc(F)cc1)CCN(C)C` (centres unmarked) [Compound 81], the values for the IC90 in data set [3], in data set [4] and in data set [5] were 9.3 µg/mL (≈ 15.9 µM), 1.9 µg/mL (≈ 3.24 µM) and 1.9 µg/mL (≈ 3.24 µM), respectively. Moreover, in data set [1], the “IC90 SPN 6305” value worked out at 0.6 µg/mL (≈ 1.02 µM). Further, the “IC90 STA 29213” value in data set [2] came out at 1.9 µg/mL (≈ 3.24 µM).
With `COc1nc2ccc(Br)cc2cc1C(c1cccc(C)c1)C(O)(CCc1ccc(F)cc1)CCN(C)C` (centres unmarked) [Compound 82], in data set [3], the “IC90 EFA 29212” value came out at 1.8 µg/mL (≈ 3.18 µM). For the same molecule, in data set [4], the “IC90 PAE 27853” value is 1.8 µg/mL (≈ 3.18 µM). In addition, in data set [1], the “IC90 SPN 6305” value came out at 2.3 µg/mL (≈ 4.07 µM). The “IC90 SPY 8668” value in data set [5] worked out at 1.8 µg/mL (≈ 3.18 µM). Moreover, the “IC90 STA 29213” value in data set [2] came out at 1.8 µg/mL (≈ 3.18 µM).
With `COc1nc2ccc(Br)cc2cc1C(c1cccc(C)c1)C(O)(CCc1ccc(F)cc1)CCN(C)C` (centres unmarked) [Compound 83], the “IC90 EFA 29212” value in data set [3] worked out at 9.0 µg/mL (≈ 15.9 µM). Besides, the “IC90 PAE 27853” value in data set [4] was 4.0 µg/mL (≈ 7.07 µM). In addition, the “IC90 SPN 6305” value in data set [1] was 0.5 µg/mL (≈ 0.884 µM). For the same molecule, the IC90 in data set [5] and in data set [2] was 1.8 µg/mL (≈ 3.18 µM) throughout.
Regarding `COc1ccc(C(c2cc3cc(Br)ccc3nc2OC)C(O)(CCc2ccc(F)cc2)CCN(C)C)cc1` (centres unmarked) [Compound 84], the IC90 came to 58.2 µg/mL (≈ 100 µM) in data set [3]; 46.2 µg/mL (≈ 79.4 µM) in data set [4]; 2.1 µg/mL (≈ 3.61 µM) in data set [1]; 46.2 µg/mL (≈ 79.4 µM) in data set [5]; 4.6 µg/mL (≈ 7.91 µM) in data set [2].
For `COc1nc2ccc(Br)cc2cc1C(c1ccc(Cl)cc1)C(O)(CCc1ccc(C)cc1)CCN(C)C` (centres unmarked) [Compound 87], the IC90 turned out to be 11.6 µg/mL (≈ 19.9 µM) in data set [3], 9.2 µg/mL (≈ 15.8 µM) in data set [4] and 5.2 µg/mL (≈ 8.93 µM) in data set [5]. Besides, the “IC90 SPN 6305” value in data set [1] is 2.3 µg/mL (≈ 3.95 µM). Also, the “IC90 STA 29213” value in data set [2] came to 9.2 µg/mL (≈ 15.8 µM).
As for `COc1ccccc1CCC(O)(CCN(C)C)C(c1ccc(Cl)cc1)c1cc2cc(Br)ccc2nc1OC` (centres unmarked) [Compound 88], the IC90 was 37.7 µg/mL (≈ 63 µM) in data set [3]; 2.1 µg/mL (≈ 3.51 µM) in data set [4]; 0.5 µg/mL (≈ 0.836 µM) in data set [1]; 1.9 µg/mL (≈ 3.18 µM) in data set [5]; 9.5 µg/mL (≈ 15.9 µM) in data set [2].
